Results taken from US20060270742A1, “Compositions and methods for the treatment of neurodegenerative diseases” (priority 2005, published 2006).

Columns and labels:
SMN protein [1] = assay: SMN cytoblot assay in SMA patient fibroblasts; format: cell-based, human; conditions: for SMN protein levels: SMA patient fibroblasts, cytoblot; for SMN per viable cell (normalized hit): SMN cytoblot relative to cell number estimated by Alamar blue
Description: One method for monitoring SMN protein levels in cells is through use of a cytoblot assay, in which cells are fixed and probed with an antibody against a target protein of interest.
Using the cytoblot assay, we can clearly distinguish SMN protein levels in patient (GM03813) versus carrier fibroblast cells (GM03814).
The SMN cytoblot protocol is described below.
• 1. Plate 50 μl per well of 300,000 cells/ml (15,000 cells per well) into Nunc white 384-well opaque-bottomed plates. • 2. Incubate plates at 37° C., 5% CO2 overnight. Day 2 • 1. Aspirate media from wells using Tecan plate washer. • 2. Fix cells by adding 20 μl/well of cold methanol (kept in −20° C. freezer). • 3. Incubate plates in 4° C. refrigerator for 10 minutes. • 4. Aspirate methanol using Tecan plate washer. • 5. Add 50 μl/well of primary Ab solution, (BD anti-SMN Ab diluted to 125 ng/ml in 10% fetal goat serum PBST), using multi-drop. • 6. Seal plates and incubate overnight at room temperature. Day 3 • 1. After 16-20 hrs incubation, wash plates with PBST 2× using Tecan plate washer. • 2. Add 50 μl of secondary Ab solution, (Santa Cruz goat anti-Mouse-HRP diluted to 67 ng/ml in 10% fetal goat serum PBST). • 3. Seal plates and incubate 2 hrs at room temperature. • 4. Wash plates with PBST 2× using Tecan plate washer. • 5. Add 50 μl/well 10% fetal goat serum PBST. • 6. Incubate in 4° C. refrigerator for 10 minutes. • 7. Aspirate plates using plate washer and add ECL luminescence solution, 20 μl/well. • 8. Measure luminescence on plate reader. Automated Scoring
We scored each compound based on the maximum signal-to-noise ratio (SNR) found among its dose curves. These scores are based on edge-corrected SMN data, using only plates that passed quality control. The untreated level on each plate was found by taking the median of the untreated wells, and for each treated well we calculated a log(T/U) ratio. Each curve was generated in triplicate on each plate, so each point on a compound's dose curve was obtained by determining the median for the replicate points. Each ratio thus has an error estimate from the scatter between the triplicate data points (1.5 times the median absolute deviation from the median). For each dose curve, we calculated the SNR for each data point log(T/U)/error, and chose the maximum point as our indicator of SMN induction activity. Since this is a signal-to-noise score, scores much greater than one indicate significant activity, assuming normal statistics. We decided to use a cutoff signal-to-noise ratio of 6. This selection represents a considerable enrichment towards visually-selected compounds. We identified 100 out of 2000 compounds producing scores>6. This included 13 of the 28 visual selections.
• 1. […] Type 3 reversal of curve hits […]

SMN protein [2] = assay: Western blot of SMN protein in treated cells; format: cell-based, human; conditions: 72 hours treatment, densitometry, fold change relative to vehicle (DMSO)
Description: Effects on SMN protein levels were also confirmed by western blots. Cells were treated with compound or vehicle for 72 hours. Cell lysates were prepared and analyzed by western blot. SMN protein levels were quantified by densitometry and normalized to an internal control protein (GAPdH or EIF4e) (FIGS. 4-6). The SMN/control ratios shown in FIGS. 4-6 depict the fold change relative to vehicle (DMSO) control.

CC12CC3CC(C)(C1)CC(N)(C3)C2 [memantine, 1-amino-3,5-dimethyl adamantane]
SMN protein levels (SMN protein [1]): increase SMN protein levels | SMN per viable cell (normalized hit) (SMN protein [1]): normalized hits | SMN protein relative to control proteins GAPdH and eIF4E (SMN protein [2]): increases in SMN protein

NC12CC3CC(CC(C3)C1)C2 [amantadine]
SMN protein levels (SMN protein [1]): increase SMN protein levels | SMN per viable cell (normalized hit) (SMN protein [1]): normalized hits
